Marks after values point to notes of the source that are not given here. Residues, ends and D or L forms follow the SMILES beside them.
How the values were obtained:
DtpB [1] = molecular target: T1, DtpB (Escherichia coli, UniProt P36837); assay: thermal unfolding titration, irreversible kinetic (Hall) model; also co-crystal structure; type: binding; settings: purified protein
T1 construct: purified membrane protein; reconstituted in liposomes for transport; Nb132 complex for crystals; host, tags and borders only in supplement
T1 sequence (P36837 1-489): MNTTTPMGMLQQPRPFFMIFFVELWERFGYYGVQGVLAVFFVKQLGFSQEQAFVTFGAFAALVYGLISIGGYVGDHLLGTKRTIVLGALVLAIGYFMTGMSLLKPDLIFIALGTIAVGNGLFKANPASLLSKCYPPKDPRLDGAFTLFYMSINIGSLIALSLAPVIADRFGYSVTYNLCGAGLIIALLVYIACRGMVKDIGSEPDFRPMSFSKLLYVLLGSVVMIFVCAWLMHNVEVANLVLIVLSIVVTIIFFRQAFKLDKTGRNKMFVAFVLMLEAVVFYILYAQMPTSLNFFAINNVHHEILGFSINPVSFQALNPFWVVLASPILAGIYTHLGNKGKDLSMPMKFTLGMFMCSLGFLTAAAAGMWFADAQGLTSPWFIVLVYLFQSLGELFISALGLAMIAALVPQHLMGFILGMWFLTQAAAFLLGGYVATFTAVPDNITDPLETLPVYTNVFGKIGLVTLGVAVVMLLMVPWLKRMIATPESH

DtpB [2] = molecular target: T1, DtpB; assay: inhibition of AA transport, pyranine fluorescence assay in proteoliposomes; type: biochemical
DtpB [3] = molecular target: T1, DtpB; assay: as above; type: biochemical; remark: listed apart in the source
DtpB [4] = molecular target: T1, DtpB; assay: thermal unfolding titration, irreversible kinetic (Hall) model; type: binding
DtpB [5] = molecular target: T1, DtpB; assay: X-ray crystal structure of complex; type: binding; settings: crystallised with nanobody Nb132; inward-facing open; central cavity

Compound: C[C@H](N)C(=O)N[C@@H](Cc1ccccc1)C(=O)O [AF, Ala-Phe]
- KD (DtpB [1]): Peptide affinity is color-coded with AF having the highest affinity
- IC50 (DtpB [2]): 2370 ± 680 µM
- Ki (DtpB [3]): 250 ± 80 µM

Compound: C[C@H](N)C(=O)N[C@@H](Cc1c[nH]cn1)C(=O)O [AH] (H-Ala-His-OH)
- Kd (DtpB [4]): 100 ± 40 µM

Compound: CC[C@H](C)[C@H](NC(=O)[C@H](C)N)C(=O)O [AI, Ala-Ile] (H-Ala-Ile-OH)
- X-ray crystal structure of complex (DtpB [5]): Structure of DtpB bound to nanobody Nb132 and the dipeptide AI

Compound: C[C@H](N)C(=O)N[C@@H](CCCCN)C(=O)O [AK] (H-Ala-Lys-OH)
- Kd (DtpB [4]): 1770 ± 90 µM

Compound: CC(C)[C@H](NC(=O)[C@@H](N)CCCCN)C(=O)O [KV, Lys-Val] (H-Lys-Val-OH)
- X-ray crystal structure of complex (DtpB [5]): Q34 interacts with the ε-amino group of K1* in KV

Compound: O=C(O)[C@H](Cc1ccc(O)cc1)NC(=O)[C@@H]1CCCN1 [PY] (H-Pro-Tyr-OH)
- Kd (DtpB [4]): 206 ± 126 µM

Compound: N[C@@H](CO)C(=O)N[C@@H](Cc1c[nH]cn1)C(=O)O [SH] (H-Ser-His-OH)
- Kd (DtpB [4]): 352 ± 38 µM

From article doi:10.1101/2023.02.14.528348v1, “Plasticity of the binding pocket in peptide transporters underpins promiscuous substrate recognition” (biorxiv, 2023)
